Experimental data from patent publication US20240092784A1, “CONDENSED HETEROCYCLIC COMPOUND” (NISSAN CHEMICAL CORPORATION, priority 2020, published 2024).

Molecular target: human SPR (Homo sapiens (Human), UniProt P35270)
Assay: Evaluation Example 2: Measurement of human SPR inhibitory activity (seven concentrations, sepiapterin absorbance at 420 nm)
Type: biochemical
Conditions: Evaluation Example 2, seven concentrations 0.14 nM to 100 nM, 240 minutes at room temperature, read-out: IC50
In short: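 His-tagged full-length human SPR (1-261) was expressed in E. coli and the tag removed. Enzyme at 150 ng/mL in 100 mM Tris-HCl pH 7.5/0.01% BSA was mixed with compound (0.14–100 nM, seven points), 120 μM sepiapterin and 160 μM NADPH, both as added-solution concentrations. After 240 min at room temperature, remaining sepiapterin was read at 420 nm to give percent inhibition.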

human SPR, sequence (P35270 whole entry): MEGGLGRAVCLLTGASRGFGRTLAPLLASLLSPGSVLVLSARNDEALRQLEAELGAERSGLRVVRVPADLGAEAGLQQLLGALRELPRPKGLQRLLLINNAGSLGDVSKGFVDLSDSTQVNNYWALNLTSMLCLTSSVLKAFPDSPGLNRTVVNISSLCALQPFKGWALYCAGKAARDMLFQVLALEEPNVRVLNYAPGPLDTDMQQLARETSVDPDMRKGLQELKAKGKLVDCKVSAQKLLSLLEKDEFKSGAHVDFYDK

Row | SMILES | IC50 [nM]
1 | Cc1nn2c(O)c(C(=O)NC3CC3)c(=O)n(CC(C)C)c2c1/C=C/C(=O)N(C)Cc1ccn(C)n1 [Synthesis Example 639, (E)-N-Cyclopropyl-7-hydroxy-4-isobutyl-2-methyl-3-(3-(methyl((1-methyl-1H-pyrazol-3-yl)methyl)amino)-3-oxoprop-1-en-1-yl)-5-oxo-4,5-dihydropyrazolo[1,5-a]pyrimidine-6-carboxamide] | 1.06
2 | CC(C)Cn1c(=O)c(C(=O)NC2CC2)c(O)n2ncc(/C=C/C(=O)N(C)C(C)C)c12 [compound 503, (E)-N-Cyclopropyl-7-hydroxy-4-isobutyl-3-(3-(isopropyl(methyl)amino)-3-oxoprop-1-en-1-yl)-5-oxo-4,5-dihydropyrazolo[1,5-a]pyrimidine-6-carboxamide] | 0.8
3 | COCCNC(=O)/C=C/c1cnn2c(O)c(C(=O)NC3CC3)c(=O)n(CC(C)C)c12 [compound 517, (E)-N-Cyclopropyl-7-hydroxy-4-isobutyl-3-(3-((2-methoxyethyl)amino)-3-oxoprop-1-en-1-yl)-5-oxo-4,5-dihydropyrazolo[1,5-a]pyrimidine-6-carboxamide] | 0.57
4 | Cc1nn2c(O)c(C(=O)NC3CC3)c(=O)n(CC(C)C)c2c1/C=C/C(=O)N1CCC(F)(F)CC1C (centres unmarked) [Synthesis Example 672, (E)-N-Cyclopropyl-3-(3-(4,4-difluoro-2-methylpiperidin-1-yl)-3-oxoprop-1-en-1-yl)-7-hydroxy-4-isobutyl-2-methyl-5-oxo-4,5-dihydropyrazolo[1,5-a]pyrimidine-6-carboxamide] | 0.86
5 | COC(C)(C)Cn1c(=O)c(C(=O)NC2CC2)c(O)n2nc(Nc3cnccn3)cc12 [Synthesis Example 321, N-Cyclopropyl-7-hydroxy-4-(2-methoxy-2-methylpropyl)-5-oxo-2-(pyrazin-2-ylamino)-4,5-dihydropyrazolo[1,5-a]pyrimidine-6-carboxamide] | 0.72
6 | CC(C)Cn1c(=O)c(C(=O)NC2CC2)c(O)n2ncc(/C=C/C(=O)N3CCCCO3)c12 [compound 535, (E)-3-(3-(1,2-Oxazinan-2-yl)-3-oxoprop-1-en-1-yl)-N-cyclopropyl-7-hydroxy-4-isobutyl-5-oxo-4,5-dihydropyrazolo[1,5-a]pyrimidine-6-carboxamide] | 0.92
7 | CNc1nn2c(O)c(C(=O)NC3CC3)c(=O)n(CC(C)C)c2c1/C=C/C(=O)N1[C@@H](C)COC[C@@H]1C [Synthesis Example 432, N-Cyclopropyl-3-((E)-3-((3S,5S)-3,5-dimethylmorpholino)-3-oxoprop-1-en-1-yl)-7-hydroxy-4-isobutyl-2-(methylamino)-5-oxo-4,5-dihydropyrazolo[1,5-a]pyrimidine-6-carboxamide] | 0.66
8 | CC(C)Cn1c(=O)c(C(=O)NCC(F)(F)F)c(O)n2nc(Br)cc12 [Synthesis Example 273, 2-Bromo-7-hydroxy-4-isobutyl-5-oxo-N-(2,2,2-trifluoroethyl)-4,5-dihydropyrazolo[1,5-a]pyrimidine-6-carboxamide] | 11.6
9 | CC(C)Cn1c(=O)c(C(=O)NC2CC2)c(O)n2ncc(/C=C/c3noc(=O)[nH]3)c12 [Synthesis Example 267, (E)-N-Cyclopropyl-7-hydroxy-4-isobutyl-5-oxo-3-(2-(5-oxo-4,5-dihydro-1,2,4-oxadiazol-3-yl)vinyl)-4,5-dihydropyrazolo[1,5-a]pyrimidine-6-carboxamide] | 14.3
10 | CC(C)(C)Cn1c(=O)c(C(=O)NC2CC2)c(O)n2nc3c(c12)CN(CC1CCOCC1)C(=O)N3 [Synthesis Example 409, N-Cyclopropyl-8-hydroxy-5-neopentyl-2,6-dioxo-3-((tetrahydro-2H-pyran-4-yl)methyl)-1,2,3,4,5,6-hexahydropyrazolo[1,5-a:3,4-d′]dipyrimidine-7-carboxamide] | 0.75
11 | CC(C)Cn1c(=O)c(C(=O)NC2CC2)c(O)n2ncc(/C=C/c3cscn3)c12 [Synthesis Example 240, (E)-N-Cyclopropyl-7-hydroxy-4-isobutyl-5-oxo-3-(2-(thiazol-4-yl)vinyl)-4,5-dihydropyrazolo[1,5-a]pyrimidine-6-carboxamide] | 1.84
12 | CC(C)Cn1c(=O)c(C(=O)NC2CC2)c(O)n2ncc(/C=C/C(=O)N3CC4C(C3)C4(F)F)c12 (centres unmarked) [compound 511, (E)-N-Cyclopropyl-3-(3-(6,6-difluoro-3-azabicyclo[3.1.0]hexan-3-yl)-3-oxoprop-1-en-1-yl)-7-hydroxy-4-isobutyl-5-oxo-4,5-dihydropyrazolo[1,5-a]pyrimidine-6-carboxamide] | 1.07
13 | Cc1nn2c(O)c(C(=O)NC3CC3)c(=O)n(CC(C)C)c2c1/C=C/C(=O)N1CCN(C2CC(F)(F)C2)C[C@@H]1C [Synthesis Example 671, (S,E)-N-Cyclopropyl-3-(3-(4-(3,3-difluorocyclobutyl)-2-methylpiperazin-1-yl)-3-oxoprop-1-en-1-yl)-7-hydroxy-4-isobutyl-2-methyl-5-oxo-4,5-dihydropyrazolo[1,5-a]pyrimidine-6-carboxamide] | 1.49
14 | Cc1nn2c(O)c(C(=O)NC3CC3)c(=O)n(CC(C)(C)C)c2c1/C=C/C(=O)N1CCC[C@@H]1C(C)(C)O [Synthesis Example 655, (R,E)-N-Cyclopropyl-7-hydroxy-3-(3-(2-(2-hydroxypropan-2-yl)pyrrolidin-1-yl)-3-oxoprop-1-en-1-yl)-2-methyl-4-neopentyl-5-oxo-4,5-dihydropyrazolo[1,5-a]pyrimidine-6-carboxamide] | 1.05
15 | CC[C@@H]1CCCN1C(=O)/C=C/c1cnn2c(O)c(C(=O)NC3CC3)c(=O)n(CC(C)C)c12 [compound 562, (R,E)-N-Cyclopropyl-3-(3-(2-ethylpyrrolidin-1-yl)-3-oxoprop-1-en-1-yl)-7-hydroxy-4-isobutyl-5-oxo-4,5-dihydropyrazolo[1,5-a]pyrimidine-6-carboxamide] | 1.31
16 | CC(=O)N1CCC(C)(/C=C/c2cnn3c(O)c(C(=O)NC4CC4)c(=O)n(CC(C)C)c23)CC1 [Synthesis Example 245, (E)-3-(2-(1-Acetyl-4-methylpiperidin-4-yl)vinyl)-N-cyclopropyl-7-hydroxy-4-isobutyl-5-oxo-4,5-dihydropyrazolo[1,5-a]pyrimidine-6-carboxamide] | 1.08
17 | CC(C)Cn1c(=O)c(C(=O)NC2CC2)c(O)n2ncc(/C=C/C(=O)N3CCC[C@H]3c3cccnc3)c12 [compound 603, (S,E)-N-Cyclopropyl-7-hydroxy-4-isobutyl-5-oxo-3-(3-oxo-3-(2-(pyridin-3-yl)pyrrolidin-1-yl)prop-1-en-1-yl)-4,5-dihydropyrazolo[1,5-a]pyrimidine-6-carboxamide] | 1.1
18 | CC(C)Cn1c(=O)c(C(=O)NC2CC2)c(O)n2ncc(/C=C/C(=O)N3CC[C@H](C(C)(C)O)C3)c12 [compound 598, (S,E)-N-Cyclopropyl-7-hydroxy-3-(3-(3-(2-hydroxypropan-2-yl)pyrrolidin-1-yl)-3-oxoprop-1-en-1-yl)-4-isobutyl-5-oxo-4,5-dihydropyrazolo[1,5-a]pyrimidine-6-carboxamide] | 1.2
19 | CC(C)Cn1c(=O)c(C(=O)NC2CC2)c(O)n2nc(O)cc12 [Synthesis Example 318, N-Cyclopropyl-2,7-dihydroxy-4-isobutyl-5-oxo-4,5-dihydropyrazolo[1,5-a]pyrimidine-6-carboxamide] | 1.43
20 | CNc1ncccc1-c1cc2n(CC(C)(C)C)c(=O)c(C(=O)NC3CC3)c(O)n2n1 [Synthesis Example 309, N-Cyclopropyl-7-hydroxy-2-(2-(methylamino)pyridin-3-yl)-4-neopentyl-5-oxo-4,5-dihydropyrazolo[1,5-a]pyrimidine-6-carboxamide] | 22.9
21 | Cc1nn2c(O)c(C(=O)NC3CC3)c(=O)n(CC(C)C)c2c1/C=C/C(=O)N1CCC[C@@H]1c1ccccn1 [Synthesis Example 635, (R,E)-N-Cyclopropyl-7-hydroxy-4-isobutyl-2-methyl-5-oxo-3-(3-oxo-3-(2-(pyridin-2-yl)pyrrolidin-1-yl)prop-1-en-1-yl)-4,5-dihydropyrazolo[1,5-a]pyrimidine-6-carboxamide] | 1.08
22 | CC(C)Cn1c(=O)c(C(=O)NC2CCC2)c(O)n2ncc(/C=C/C(=O)N3CCOCC3)c12 [compound 527, (E)-N-Cyclobutyl-7-hydroxy-4-isobutyl-3-(3-morpholino-3-oxoprop-1-en-1-yl)-5-oxo-4,5-dihydropyrazolo[1,5-a]pyrimidine-6-carboxamide] | 0.74
23 | CC(C)Cn1c(=O)c(C(=O)NC2CC2)c(O)n2ncc(/C=C/C(=O)N3CCOC[C@@H]3c3ccccc3)c12 [compound 606, (S,E)-N-Cyclopropyl-7-hydroxy-4-isobutyl-5-oxo-3-(3-oxo-3-(3-phenylmorpholino)prop-1-en-1-yl)-4,5-dihydropyrazolo[1,5-a]pyrimidine-6-carboxamide] | 1.32

Same assay, conditions: sepiapterin absorbance, Table 41, read-out: concentration at 50% inhibition of human SPR (IC50)

Row | SMILES | IC50 [nM]
24 | Cc1nn2c(O)c(C(=O)NC3CC3)c(=O)n(CC(C)C)c2c1/C=C/C(=O)N1CCC[C@@H]1C#N [Synthesis Example 749, (R,E)-3-(3-(2-Cyanopyrrolidin-1-yl)-3-oxoprop-1-en-1-yl)-N-cyclopropyl-7-hydroxy-4-isobutyl-2-methyl-5-oxo-4,5-dihydropyrazolo[1,5-a]pyrimidine-6-carboxamide] | 0.93
25 | CC(C)Cn1c(=O)c(C(=O)NC2CC2)c(O)n2ncc(/C=C/C(=O)N3CCC[C@@H]3c3cccnc3)c12 [Synthesis Example 748, (R,E)-N-Cyclopropyl-7-hydroxy-4-isobutyl-5-oxo-3-(3-oxo-3-(2-(pyridin-3-yl)pyrrolidin-1-yl)prop-1-en-1-yl)-4,5-dihydropyrazolo[1,5-a]pyrimidine-6-carboxamide] | 1.01
26 | Cc1nn2c(O)c(C(=O)NC3CC3)c(=O)n(CC(C)C)c2c1/C=C/C(=O)N1CCC(C#N)CC1 [Synthesis Example 684, (E)-3-(3-(4-Cyanopiperidin-1-yl)-3-oxoprop-1-en-1-yl)-N-cyclopropyl-7-hydroxy-4-isobutyl-2-methyl-5-oxo-4,5-dihydropyrazolo[1,5-a]pyrimidine-6-carboxamide] | 0.89
